Laboratory results taken from ChEMBL document CHEMBL1909046, “DrugMatrix in vitro pharmacology data”.

Tests used:
[1] = target: Mitogen-activated protein kinase 14 (Homo sapiens, UniProt Q16539); parameters: species or system Escherichia coli;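 also: inhibition of p38alpha enzyme activity in a biochemical kinase assay, with myelin basic protein serving as substrate; in other assays of this panel Not Active means under 50% inhibition at 10 µM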
Histamine H2 receptor = Histamine H2 receptor (Homo sapiens, UniProt P25021); assay type: cell membranes, CHO-K1, Membrane; details: cho-k1; also: in other assays of this panel Not Active means under 50% inhibition at 10 µM
Histamine H2 receptor, sequence (P25021 whole entry): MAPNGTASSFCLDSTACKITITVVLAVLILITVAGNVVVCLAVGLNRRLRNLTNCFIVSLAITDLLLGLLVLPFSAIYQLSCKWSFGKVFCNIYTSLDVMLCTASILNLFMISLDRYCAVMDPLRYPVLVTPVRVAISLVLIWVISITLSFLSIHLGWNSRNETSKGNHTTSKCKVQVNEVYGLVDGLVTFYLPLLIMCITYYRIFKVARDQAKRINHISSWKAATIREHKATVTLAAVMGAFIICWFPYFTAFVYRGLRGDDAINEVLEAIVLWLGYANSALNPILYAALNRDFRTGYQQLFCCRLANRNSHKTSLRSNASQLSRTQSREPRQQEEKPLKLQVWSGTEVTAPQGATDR

[2] = target: Platelet-activating factor receptor (Homo sapiens, UniProt P25105); assay type: tissue-based; also: in other assays of this panel Not Active means under 50% inhibition at 10 µM
Platelet-activating factor receptor, sequence (P25105 whole entry): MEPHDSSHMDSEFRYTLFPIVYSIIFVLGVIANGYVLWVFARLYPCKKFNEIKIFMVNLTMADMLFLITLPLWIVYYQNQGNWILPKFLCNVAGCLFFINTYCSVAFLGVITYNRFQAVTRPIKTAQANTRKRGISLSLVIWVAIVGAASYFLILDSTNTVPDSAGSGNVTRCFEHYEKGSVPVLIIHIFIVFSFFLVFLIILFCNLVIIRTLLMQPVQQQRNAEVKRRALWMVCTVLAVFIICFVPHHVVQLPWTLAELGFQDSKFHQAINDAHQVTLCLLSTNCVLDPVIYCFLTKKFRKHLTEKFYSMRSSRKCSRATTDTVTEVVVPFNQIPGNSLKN

[3] = target: T1, Alpha-1B adrenergic receptor (Rattus norvegicus, UniProt P15823); experiment: DRUGMATRIX: Alpha-1B adrenergic receptor radioligand binding (ligand: prazosin); assay type: cell membranes, Wistar, Liver, Membrane; details: Not Active = under 50% inhibition at 10 µM
T1 sequence (P15823 whole entry): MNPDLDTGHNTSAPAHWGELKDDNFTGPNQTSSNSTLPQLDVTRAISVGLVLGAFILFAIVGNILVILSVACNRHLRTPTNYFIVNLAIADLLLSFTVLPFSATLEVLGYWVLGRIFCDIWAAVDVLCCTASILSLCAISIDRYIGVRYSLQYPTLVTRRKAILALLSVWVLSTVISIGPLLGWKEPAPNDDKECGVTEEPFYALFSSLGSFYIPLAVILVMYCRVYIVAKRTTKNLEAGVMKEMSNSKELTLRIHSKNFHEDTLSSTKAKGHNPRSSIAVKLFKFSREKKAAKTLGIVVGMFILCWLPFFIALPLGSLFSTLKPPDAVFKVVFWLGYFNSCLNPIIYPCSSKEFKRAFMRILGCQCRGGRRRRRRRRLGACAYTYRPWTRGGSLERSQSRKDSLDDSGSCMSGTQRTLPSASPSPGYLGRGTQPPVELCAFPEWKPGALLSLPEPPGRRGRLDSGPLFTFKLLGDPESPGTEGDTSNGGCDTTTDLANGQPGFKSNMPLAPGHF

[4] = target: Epidermal growth factor receptor (Homo sapiens, UniProt P00533); experiment: DRUGMATRIX: Protein Tyrosine Kinase, EGF Receptor enzyme inhibition (substrate: Poly(Glu:Tyr)); assay type: cell-based, Insect cells; details: Not Active = under 50% inhibition at 10 µM

Mitogen-activated protein kinase 14, sequence (Q16539 whole entry): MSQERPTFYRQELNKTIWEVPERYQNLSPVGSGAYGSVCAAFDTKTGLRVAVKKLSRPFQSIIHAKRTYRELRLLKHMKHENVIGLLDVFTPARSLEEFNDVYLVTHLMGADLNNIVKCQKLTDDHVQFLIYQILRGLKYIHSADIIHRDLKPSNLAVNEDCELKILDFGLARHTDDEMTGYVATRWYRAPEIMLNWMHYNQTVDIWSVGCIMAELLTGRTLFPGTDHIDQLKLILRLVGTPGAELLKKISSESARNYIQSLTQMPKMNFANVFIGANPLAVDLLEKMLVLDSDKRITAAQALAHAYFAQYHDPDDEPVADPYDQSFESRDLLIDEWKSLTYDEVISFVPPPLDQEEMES

Compound	IC50 [1]	IC50 (Histamine H2 receptor)	IC50 [2]	IC50 [3]	IC50 ([4]; insect cells)	IC50 ([4]; read-out: IC50) [µM]	IC50 ([1]; read-out: IC50) [µM]	Ki [1]	Ki (Histamine H2 receptor)	Ki [2]	Ki [3]	Ki ([4]; insect cells)
Cc1c(N)nc([C@H](CC(N)=O)NC[C@H](N)C(N)=O)nc1C(=O)N[C@H](C(=O)N[C@H](C)[C@@H](O)[C@H](C)C(=O)N[C@H](C(=O)NCCc1nc(-c2nc(C(=O)NCCC[S+](C)C)cs2)cs1)[C@@H](C)O)[C@@H](O[C@@H]1O[C@@H](CO)[C@@H](O)[C@H](O)[C@@H]1O[C@H]1O[C@H](CO)[C@@H](O)[C@H](OC(N)=O)[C@@H]1O)c1c[nH]cn1.[Br-] [BLEOMYCIN A2]	Not Active	Not Active	Not Active	Not Active	Not Active							
CN(Cc1cc(Br)cc(Br)c1N)C1CCCCC1 [BROMHEXINE]	Not Active	Not Active	Not Active	Not Active	Not Active							
Nc1ccc(Cc2ccc(N)cc2)cc1	Not Active	Not Active	Not Active	Not Active	Not Active							
C[C@]12CC[C@@H](O)C[C@@H]1CC[C@@H]1[C@@H]2CC[C@]2(C)C(=O)CC[C@@H]12 [ANDROSTERONE]	Not Active	Not Active	Not Active	Not Active	Not Active							
O=C(O)c1ccccc1 [BENZOIC ACID]	Not Active	Not Active	Not Active	Not Active	Not Active							
CC(=O)Nc1ccc2c(c1)Cc1ccccc1-2 [2-ACETYLAMINOFLUORENE]	Not Active	Not Active	Not Active	Not Active	Not Active							
C[C@H](C(=O)O)c1ccc2oc(-c3ccc(F)cc3)nc2c1 [FLUNOXAPROFEN]	Not Active	Not Active	Not Active	Not Active	Not Active							
C[C@H]1C[C@H]2[C@@H]3CCC4=CC(=O)C=C[C@]4(C)[C@@]3(F)[C@@H](O)C[C@]2(C)[C@@]1(O)C(=O)CO [BETAMETHASONE]	Not Active	Not Active	Not Active	Not Active	Not Active							
CN(CCOc1ccc(C[C@H](Nc2ccccc2C(=O)c2ccccc2)C(=O)O)cc1)c1ccccn1	Not Active	Not Active	Not Active	Not Active		10.9						
NS(=O)(=O)c1cc(C(=O)O)c(NCc2ccco2)cc1Cl [FUROSEMIDE]	Not Active	Not Active	Not Active	Not Active	Not Active							
CCN1CCN(c2cc3c(cc2F)c(=O)c(C(=O)O)cn3C2CC2)CC1 [ENROFLOXACIN]	Not Active	Not Active	Not Active	Not Active	Not Active							
C[N+](C)(C)CCOP(=O)([O-])OC[C@H](O)CO	Not Active	Not Active	Not Active	Not Active	Not Active							
O=C(Nc1ccc(Cl)c(Cl)c1)c1cc(Cl)cc(Cl)c1O [3,3',4',5-TETRACHLOROSALICYLANILIDE]		Not Active	Not Active	Not Active	Not Active		2.18					
O=C(O)COC(=O)Cc1ccccc1Nc1c(Cl)cccc1Cl [ACECLOFENAC]	Not Active	Not Active	Not Active	Not Active	Not Active							
O=c1[nH]c2ccccc2c2ccccc12	Not Active	Not Active	Not Active	Not Active	Not Active							
C=CCN1CC[C@]23c4c5ccc(O)c4O[C@H]2/C(=N/N=C2\CC[C@@]4(O)[C@H]6Cc7ccc(O)c8c7[C@@]4(CCN6CC=C)[C@H]2O8)CC[C@@]3(O)[C@H]1C5 [NALOXONAZINE]	Not Active	Not Active	Not Active	Not Active	Not Active							
ClC1=C(Cl)[C@]2(Cl)[C@@H]3[C@@H]4C[C@@H]([C@H]5O[C@@H]45)[C@@H]3[C@@]1(Cl)C2(Cl)Cl [DIELDRIN]		Not Active	Not Active	Not Active	Not Active		43.2					
COPPER(II) OXIDE	Not Active	Not Active	Not Active	Not Active	Not Active			Not Active	Not Active	Not Active	Not Active	Not Active
CCO [ALCOHOL]	Not Active	Not Active	Not Active	Not Active	Not Active							

Compound	IC50 [1]	IC50 (Histamine H2 receptor)	IC50 [2]	IC50 [3]	IC50 ([4]; insect cells)	IC50 ([4]; read-out: IC50) [µM]	IC50 ([1]; read-out: IC50) [µM]	Ki [1]	Ki (Histamine H2 receptor)	Ki [2]	Ki [3]	Ki ([4]; insect cells)
CC(N)Cc1c[nH]c2ccc(OCc3cccs3)cc12 (stereo not given) [BW-723C86]	Not Active	Not Active	Not Active	Not Active	Not Active							
CCN(CCO)CCCC(C)Nc1ccnc2cc(Cl)ccc12 (stereo not given) [HYDROXYCHLOROQUINE]	Not Active	Not Active	Not Active	Not Active	Not Active							
c1ccc2sc(SSc3nc4ccccc4s3)nc2c1 [BENZOTHIAZYL DISULFIDE]	Not Active	Not Active	Not Active	Not Active	Not Active							
CC(C)Cc1ccc([C@H](C)C(=O)O)cc1 [DEXIBUPROFEN]	Not Active	Not Active	Not Active	Not Active	Not Active							
Cl.NC[C@H]1CC[C@H](C(=O)Oc2ccc(CCC(=O)O)cc2)CC1 [CETRAXATE HYDROCHLORIDE]	Not Active	Not Active	Not Active	Not Active	Not Active							
Nc1nc(N)c2nc(CNc3ccc(C(=O)N[C@@H](CCC(=O)O)C(=O)O)cc3)cnc2n1 [AMINOPTERIN]	Not Active	Not Active	Not Active	Not Active	Not Active							
NC(=O)NC(=O)Cc1ccccc1 [PHENACEMIDE]	Not Active	Not Active	Not Active	Not Active	Not Active							
C[N+](C)(C)CCOC(N)=O.[Cl-] [CARBACHOL]	Not Active	Not Active	Not Active	Not Active	Not Active							
O=C1c2ccccc2C(=O)C1c1ccccc1 [PHENINDIONE]	Not Active	Not Active	Not Active	Not Active	Not Active							
CC(C)NCC(O)COc1ccc(CC(N)=O)cc1 (stereo not given) [ATENOLOL]	Not Active	Not Active	Not Active	Not Active	Not Active							
OC[C@H]1O[C@@H]2O[C@H]3[C@H](O)[C@@H](O)[C@@H](O[C@H]4[C@H](O)[C@@H](O)[C@@H](O[C@H]5[C@H](O)[C@@H](O)[C@@H](O[C@H]6[C@H](O)[C@@H](O)[C@@H](O[C@H]7[C@H](O)[C@@H](O)[C@@H](O[C@H]8[C@H](O)[C@@H](O)[C@@H](O[C@H]1[C@H](O)[C@H]2O)O[C@@H]8CO)O[C@@H]7CO)O[C@@H]6CO)O[C@@H]5CO)O[C@@H]4CO)O[C@@H]3CO [BETADEX]	Not Active	Not Active	Not Active	Not Active	Not Active							
COc1ccc(Cl)cc1C(=O)NCCc1ccc(S(=O)(=O)NC(=O)NC2CCCCC2)cc1 [GLYBURIDE]	Not Active	Not Active	Not Active	Not Active	Not Active							
CCN1CCN(C(=O)N[C@@H](C(=O)N[C@@H]2C(=O)N3[C@@H]2SC(C)(C)[C@@H]3C(=O)O)c2ccccc2)C(=O)C1=O [PIPERACILLIN]	Not Active	Not Active	Not Active	Not Active	Not Active							
CCC1(c2ccccc2)C(=O)NC(=O)NC1=O [PHENOBARBITAL]	Not Active	Not Active	Not Active	Not Active	Not Active							
CC1(COc2ccc(CC3SC(=O)NC3=O)cc2)CCCCC1 (stereo not given) [CIGLITAZONE]	Not Active	Not Active	Not Active	Not Active		4.66						
O=C(O)CNCP(=O)(O)O [GLYPHOSATE]	Not Active	Not Active	Not Active	Not Active	Not Active							
OC[C@H]1O[C@@H]2O[C@H]3[C@H](O)[C@@H](O)[C@@H](O[C@H]4[C@H](O)[C@@H](O)[C@@H](O[C@H]5[C@H](O)[C@@H](O)[C@@H](O[C@H]6[C@H](O)[C@@H](O)[C@@H](O[C@H]7[C@H](O)[C@@H](O)[C@@H](O[C@H]1[C@H](O)[C@H]2O)O[C@@H]7CO)O[C@@H]6CO)O[C@@H]5CO)O[C@@H]4CO)O[C@@H]3CO [ALFADEX]	Not Active	Not Active	Not Active	Not Active	Not Active							
Nc1nc(F)nc2c1ncn2[C@@H]1O[C@H](CO)[C@@H](O)[C@@H]1O [FLUDARABINE]	Not Active	Not Active	Not Active	Not Active	Not Active							
